Assay [1] deals with STAT1 phosphorylation (Ser727, Tyr701). Kind of assay: Immunoblot of STAT1 phosphorylation in IFN-γ-stimulated PBMC-derived macrophages. Format: cell-based, human. The settings on record: 10 μM pre-treatment, IFN-γ, cell lysates. How it is done:
(§1) FIGS. 3A-3F show RSK1 is activated through JAK signaling and its inhibition suppresses STAT1 phosphorylation at Ser727 in human primary macrophages in response to IFN-γ. (FIG. 3A) PBMC-derived macrophages were pre-treated with DMSO or 10 μM a pan-JAK inhibitor, pyridone-6, for two hours and then stimulated with IFN-γ for indicated time under serum starvation. Cell lysates were subjected to immunoprecipitation with normal IgG or anti-RSK1 followed by immunoblot analysis using the indicated antibodies. WCL, whole cell lysate. N=3 donors. (FIG. 3B) Immunoblots of cell lysates from macrophages that were transfected with control siRNA or RSK1 siRNA followed by stimulation with IFN-γ for indicated time under serum starvation. N=2 donors. (FIG. 3C) Immunoblots of cell lysates from macrophages that were pre-treated with DMSO or BI-D1870 for two hours and subsequently left unstimulated or stimulated with IFN-γ for 1 hour under serum starvation. (FIG. 3D) Densitometric based quantification (ImageJ Software) of STAT1-pSer727 in panel (FIG. 3C) plus three additional donors. The phosphorylation levels in cells pretreated with DMSO and stimulated were defined as 1.0. Data are means±SE. N=6 donors. **P<0.01 indicate significance for phosphorylation levels compared to control (treatment with DMSO and IFN-γ) by Dunnett's comparison test. (FIG. 3E) Macrophages were treated with DMSO or BI-d1870 for two hours followed by IFN-γ stimulation under serum starvation. Cell lysates were subjected to immunoprecipitation with normal IgG or anti-STAT1-pSer727 followed by SYPRO ruby stain or immunoblot analysis with the indicated antibodies. Immunoprecipitants in the gel (red square) were in-gel digested for parallel reaction monitoring (PRM) mass spectrometry. (FIG. 3F) Quantification of PRM ions (MS/MS ions) of the indicated STAT1 peptide harboring a phosphorylation at Ser727 (and oxidized methionine, m), generated from the digest of panel (FIG. 3F).
Cell culture of human PBMC-derived primary macrophages. […]

Another assay relates to phospho-RSK1-Ser380. The assay can be described thus: Anti-RSK1 immunoprecipitation and immunoblot in IFN-γ-stimulated PBMC-derived macrophages. Format: cell-based, human. The note with it: 10 μM pre-treatment two hours, IFN-γ up to 90 minutes, serum starvation. Here is the method:
as §1, with “N=6 donors. **P<0.01 indicate significance for phosphorylation levels compared to control (treatment with DMSO and IFN-γ) by Dunnett's comparison test. (FIG. 3E) Macrophages were treated with DMSO or BI-d1870 for two hours followed by IFN-γ stimulation under serum starvation. Cell lysates were subjected to immunoprecipitation with normal IgG or anti-STAT1-pSer727 followed by SYPRO ruby stain or immunoblot analysis with the indicated antibodies. Immunoprecipitants in the gel (red square) were in-gel digested for parallel reaction monitoring (PRM) mass spectrometry.” left out, “3F). […]” for “3F).”

These results are taken from patent publication US20210123061A1, “METHODS AND COMPOSITIONS FOR TREATING INFLAMMATORY DISEASE OR DISORDER” (THE BRIGHAM AND WOMEN'S HOSPITAL, INC., priority 2018, published 2021).

Take `CC(C)(C)c1nc2c3cc[nH]c(=O)c3c3cc(F)ccc3c2[nH]1` [Pyridone-6]: the phospho-STAT-Ser727 signal result in assay [1] is recorded as “similar”. In addition, in the assay on phospho-RSK1-Ser380, the phospho-RSK1-Ser380 signal result is listed as “marked suppression”.
